Reference: patent US20110118337A1, “Method of Using Compositions Comprising MIR-192 and/or MIR-215 for the Treatment of Cancer” (Merck Sharp & Dohme Corp., priority 2008, published 2011)
d = 2'-deoxy (DNA); r = 2'-OH (RNA)

Assays:
A549 cells = test: miRNA and p21 expression by quantitative RT-PCR after adriamycin treatment; assay type: cell-based
Procedure: (§1) TOV21G cells and A549 cells were obtained from the American Type Culture Collection (ATCC). TOV21G p53 and A549 p53 matched pair cell lines were created by stably infecting TOV21G and A549 cells with a lentivirus encoding either H1-term or p53 shRNA. Cells were cultured in Dulbecco's Modified Eagles Medium, supplemented with 10% fetal bovine serum, streptomycin, penicillin and L-glutamine.
(§2) MicroRNA expression was measured in the p53 matched cell lines (p53+/+ or p53−/− sh) either untreated or following treatment with various doses of the DNA damaging agent adriamycin (0, 10, 50 and 200 nM adriamycin). Forty-eight hours post treatment, RNA was harvested and the expression levels of miR-34a, miR-192, miR-215 and p21 were determined by quantitative RT-PCR with Taqman analysis carried out as described in Raymond C. K. et al., RNA 11: 1737-1744 (2005).

TOV21G cells = test: as above; assay type: cell-based
Procedure: as §1, §2

HCT116DICER^ex5 cells [1] = test: Cell cycle FACS screen of pools of three siRNAs per gene (G1 after nocodazole, G2/M after aphidicolin); assay type: cell-based, human; conditions: pools of 3 siRNAs/gene at 100 nM final, FACS 66 hours post-transfection, average of two experiments; for % G2 (Avg), Aphidicholin+: aphidicolin 2 μg/mL 18 h; for % G1 (Avg), Nocodazole+: nocodazole 100 ng/mL 18 h
Excerpt: To identify targets whose modulation influences the cell cycle arrest phenotype observed with miR-192 expression, the 62 candidate genes identified as described in Example 2 and shown in TABLE 3 were silenced individually by transfecting a pool of 3 gene-specific siRNA duplexes per gene (each directed to a different region of the gene) into HCT116DICER^ex5 cells. The siRNA duplex sequences (3 duplexes per gene) used to target each of the 62 genes are shown below in TABLE 5. The siRNA duplex oligonucleotides were obtained from Sigma-Genesys, as described in Linsley, P. S. et al., Mol Cell Biol 27:2240-2252 (2007).
HCT116DICER^ex5 cells were transiently transfected with pools of three different siRNA duplexes per gene at a 100 nM final concentration using Lipofectamine RNAiMax (Invitrogen), according to the manufacturer's instructions. At 48 hours post transfection, cells were left untreated, treated with nocodazole (100 ng/mL, Sigma-Aldrich), or treated with aphidicolin (2 μg/mL, Sigma-Aldrich) for an additional 18 hours before harvesting. The cells transfected with the siRNA pools were then screened by FACS analysis as described in Example 3 for the percentage of cells arrested in G1 or G2/M as compared to the negative siRNA luciferase control.
The siRNA pools tested in this screen were ranked according to the percentage of cells arrested in G1 or G2/M following transfection, as compared with a negative control siRNA targeting luciferase. To avoid being misled by possible RNAi off-target effects, the siRNA pools were deconvoluted to identify genes for which at least 2 different siRNA duplexes from the pool caused the cell cycle arrest phenotype (data not shown).
TABLE 6 summarizes the data obtained 66 hours post-transfection by FACS analysis showing the cell cycle distribution of the HCT116DICER^ex5 cells transfected with siRNA pools of 3 siRNAs/gene. Each pool was analyzed in two separate experiments, and the average percentage of the cells trapped in G1 (following nocodazole treatment), or G2/M (following aphidicolin treatment) are shown in TABLE 6.

HCT116DICER^ex5 cells [2] = test: Cell cycle FACS analysis of siRNAs against top G1 and G2 arrest genes (nocodazole or aphidicolin); assay type: cell-based, human; conditions: 100 nM siRNA
Procedure: Of the 62 genes shown above in TABLE 6, the 10 genes whose targeting by siRNA caused the largest percentage of cells to arrest in G1, listed below in TABLE 7, were transfected into HCT116DICER^ex5 cells in another experiment as follows.
HCT116DICER^ex5 cells were transfected with […] miR-192 or 100 nM siRNA against luciferase, or 100 nM siRNA (one siRNA duplex of the pool of three) against the putative miR-192 target of interest, as indicated in TABLES 7 and 8. At 48 hours post transfection, cells were treated with nocodazole or aphicicolin for an additional 18 hours prior to FACS analysis. The results for the nocodazole treated cells (% of cells in G1) are provided in TABLE 7, and graphically illustrated in FIG. 3A. The results for the aphidicolin treated cells (% of cells in G2) are provided in TABLE 8 and graphically illustrated in FIG. 3B.

HCT116DICER^ex5 cells [3] = test: Transfection of siRNA pools (G1 or G2 gene set) at suboptimal levels, cell cycle FACS analysis (nocodazole or aphidicolin); assay type: cell-based, human; conditions: 100 nM, 66 hours post transfection
Procedure: […] At 48 hours post-transfection into HCT116DICER^ex5 cells, the cells were treated with nocodazole for an additional 18 hours prior to FACS analysis.
[…] At 48 hours post-transfection into HCT116DICER^ex5 cells, the cells were treated with aphidicolin for an additional 18 hours prior to FACS analysis.

HCT116DICER^ex5 cells [4] = test: Cell cycle distribution by propidium iodide FACS after miR-192 duplex transfection (untreated, nocodazole or aphidicolin); assay type: cell-based, human; conditions: for % Cells with 2N (G1/S) / % Cells with 4N (G2/M): 10 nM duplex, 66 hours after transfection
Procedure: At 48 hours post transfection, cells were left untreated, treated with nocodazole (100 ng/mL, Sigma-Aldrich), or treated with aphidicolin (2 μg/mL, Sigma-Aldrich) for an additional 18 hours before harvesting. The cells were then trypsinized, collected, fixed and stained with a propidium iodide solution. BrdU-labeling was performed according to the manufacturer's instructions (BD-Pharmigen). For phospho-histone H3 analysis, cells were fixed and permeabilized with IPF buffer (100 mM PIPES pH 6.8, 10 mM EDTA, 1 mM MgCl2, 0.2% Triton X-100, 4% formaldehyde) and stained with propidium iodide and anti-phospho-histone H3 antibody conjugated to Alexa-488 (Cell Signaling Technology). The cells were analyzed using a FACSCalibur flow cytometer (Beacton Dickinson) and FlowJo software (Tree Star, Inc.).

[5] = test system: 3′ UTRs of the 18 candidate genes in U-2-OS cells; test: 3′ UTR luciferase reporter analysis; assay type: cell-based; conditions: 10 nM, 24 hours post-transfection
Excerpt: In order to test whether miR-192 is regulating these genes through seed sequence-specific recognition of binding sites within their 3' UTRs, a series of reporter constructs were generated containing the entire natural 3' UTRs of the 18 candidate genes (BCL2, CDC7, CUL5, DLG5, DTL, ERCC3, HOXA10, HRH1, LMNB2, MAD2L1, MCM10, MIS12, MPHOSPH1, PIM1, PRPF38A, […]1, SEPT10 and SMARCB1) inserted downstream of a luciferase open reading frame (SwitchGear Genomics) to create 3' UTR luciferase reporter plasmids. U-2-OS cells were transfected first with 10 nM miR-192 or 10 nM miR-192 mutant, and subsequently transfected 4 to 6 hours later with these 3' UTR reporter plasmids. A renilla luciferase expression plasmid from dual luciferase system (Promega) was used as an internal control. Luciferase activity was measured at 24 hours post-transfection, and quantified relative to renilla luciferase activity.

[6] = test system: CDC7, LMNB2, MAD2L1 and CUL5; test: Western blot analysis; assay type: cell-based, human; conditions: HCT116DICER^ex5 cells, 10 nM, data not shown
Procedure: HCT116DICER^ex5 cells were transfected with 10 nM siRNA against luciferase or 10 nM miR-192 or 10 nM miR-192 mutant, and lysates were prepared at 28 hours or 48 hours post-transfection. For immunoblotting, 30 μg of whole cell lysate extracted in a modified RIPA buffer (150 mM NaCl, 50 mM Tris pH 7.4, 1 mM EDTA, 1% NP-40, 0.1% SDS) was used per sample. CDC7, LMNB2, MAD2L1 and CUL5 were detected by Western blot using anti-CDC7 (sc-56275, Santa Cruz Biotechnology Inc.), anti-LMNB2 (MAB3536, Millipore), anti-MAD2L1 (ab55452, Abcam) and anti-CUL5 (Invitrogen) antibodies, and protein levels were compared to the level of β-actin expression as detected by an anti-β-actin antibody (Abcam).

COc1cccc2c1C(=O)c1c(O)c3c(c(O)c1C2=O)C[C@@](O)(C(=O)CO)C[C@@H]3O[C@H]1C[C@H](N)[C@H](O)[C@H](C)O1 [adriamycin]
miR-192, miR-215 and miR-34a expression (A549 cells; A549 cells, adriamycin 10, 50 or 200 nM, 48 hours post treatment): up-regulation
expression of miR-192 and miR-215 (A549 cells; p53 deficient A549 cells, adriamycin 10, 50 or 200 nM): not
p21 expression (A549 cells; p53 knockdown A549 cells): lack of p21 induction
expression of miR-192 and miR-215 (A549 cells; wild type (p53+/+) A549 cells, adriamycin 10, 50 or 200 nM): upregulated in a dose dependent manner
miR-192, miR-215 and miR-34a expression (TOV21G cells; TOV21G cells, adriamycin 10, 50 or 200 nM, 48 hours post treatment): up-regulation
expression of miR-192 and miR-215 (TOV21G cells; p53 deficient TOV21G cells, adriamycin 10, 50 or 200 nM): not
p21 expression (TOV21G cells; p53 knockdown TOV21G cells): lack of p21 induction
expression of miR-192 and miR-215 (TOV21G cells; wild type (p53+/+) TOV21G cells, adriamycin 10, 50 or 200 nM): upregulated in a dose dependent manner

FGF2
% G2 (Avg), Aphidicholin+ (HCT116DICER^ex5 cells [1]): 19.8%
% G1 (Avg), Nocodazole+ (HCT116DICER^ex5 cells [1]): 33.7%

Luc siRNA: Control siRNA targeting luciferase, SEQ ID NOS: 11/12 (chain 1 UCGAAGUAUUCCGCGUACGTT; chain 2 CGUACGCGGAAUACUUCGATT; sugars from the 5' end r19 d2, backbone not given here) [reference compound]
% G2 (Avg), Aphidicholin+ (HCT116DICER^ex5 cells [1]): 18.9%
% G1 (Avg), Nocodazole+ (HCT116DICER^ex5 cells [1]): 13.8%
% Cells in G2 (HCT116DICER^ex5 cells [2]; aphidicolin 18 hours from 48 hours post transfection): 19.2%
% Cells in G1 (HCT116DICER^ex5 cells [2]; nocodazole 18 hours from 48 hours post transfection): 18.5%
% G1 (HCT116DICER^ex5 cells [3]; after aphidicolin treatment): 66.3%
% G2 (HCT116DICER^ex5 cells [3]; after aphidicolin treatment): 15.6%
% G1 (HCT116DICER^ex5 cells [3]; nocodazole): 11.7%
% G2 (HCT116DICER^ex5 cells [3]; nocodazole): 83.8%

miR-192 mutant: Seed region mutant miR-192 duplex, guide CUGCACUAUGAAUUGACAGCC (SEQ ID NO:8), passenger SEQ ID NO:9 (sense CUGUCAAUUCAUAGUGCUGAU; listed as RNA, chemistry not given here) [reference compound]
% Cells with 2N (G1/S) (HCT116DICER^ex5 cells [4]; aphidicolin 2 μg/mL 18 hours): 66.5%
% Cells with 4N (G2/M) (HCT116DICER^ex5 cells [4]; aphidicolin 2 μg/mL 18 hours): 16.1%
% Cells with 2N (G1/S) (HCT116DICER^ex5 cells [4]; nocodazole 100 ng/mL 18 hours): 17%
% Cells with 4N (G2/M) (HCT116DICER^ex5 cells [4]; nocodazole 100 ng/mL 18 hours): 66.3%
accumulation in the G2/M phase (HCT116DICER^ex5 cells [4]; treated with aphidicolin): did not
% Cells with 2N (G1/S) (HCT116DICER^ex5 cells [4]; untreated): 49.9%
% Cells with 4N (G2/M) (HCT116DICER^ex5 cells [4]; untreated): 30.8%
regulation of 3′ UTR luciferase reporters of the 18 genes [5]: not
protein level [6]: not
